Data set [1] deals with T1, TLR2 (Homo sapiens, UniProt O60603). Briefly: In cyto Europium TRF competition binding assay. Particulars: competition with 90 nM Eu-labeled compound 11, SU.86.86 cells, 1 h 37° C.; read-out: TLR2 Binding Affinity (Ki). Further details: SU.86.86 pancreatic cells with endogenous expression of TLR2 were used for the assay; host or cells: SU.86.86 pancreatic adenocarcinoma cells. Here is the method: Europium Time-Resolved Fluorescence (TRF) binding assays were performed as described in Handle et al. with slight modifications using SU.86.86 cells plated in 96-well black plates with white opaque wells (PerkinElmer) (Handl et al., Lanthanide-based time-resolved fluorescence of in cyto ligand-receptor interactions. Anal Biochem 2004, 330(2):242-50; Handl et al., Development of a lanthanide-based assay for detection of receptor-ligand interactions at the delta-opioid receptor. Anal Biochem 2005, 343(2):299-307; Josan et al., Solid-phase synthetic strategy and bioevaluation of a labeled delta-opioid receptor ligand Dmt-Tic-Lys for in vivo imaging. Org Lett 2009, 11(12):2479-82). Cells were grown in the 96-well plates for 2 days reaching approximately 80% confluency. Competition binding assays were performed to test the TLR2 binding specificity of the test ligand using SU.86.86 cells. On the day of the experiment, the cell culture media was aspirated and 50 μL of nonlabeled test ligand was added in a series of decreasing concentrations (1 μM to 0.01 nM) followed by 50 μL of the competing Eu-labeled ligand 11 (Huynh et al., Novel Toll-like Receptor 2 Ligands for Targeted Pancreatic Cancer Imaging and Immunotherapy. J Med Chem 2012) at a fixed concentration of 90 nM. Cells were incubated with labeled and unlabeled ligands for 1 h at 37° C. Following incubation, cells were washed three times to remove unbound ligand. Next, 100 μL of DELFIA Enhancement Solution (PerkinElmer) was added to each well. Cells were incubated for 30 min at 37° C. prior to reading. The plates were read on PerkinElmer VICTOR X4 Multilabel reader using the standard Europium TRF protocol. To determine the mean statistical analysis was performed using GraphPad Prism software. Binding of the monoacyl TLR2 ligand (compound 14 of Table 2) was tested using the (Eu)DTPA chelate version of the diacyl TLR2 ligand (compound 11 used in Huynh et al, Id.) in a time-resolved fluorescence competition binding assay. SU.86.86 pancreatic cells with endogenous expression of TLR2 were used for the assay.
Target sequence in this assay (O60603 21-784): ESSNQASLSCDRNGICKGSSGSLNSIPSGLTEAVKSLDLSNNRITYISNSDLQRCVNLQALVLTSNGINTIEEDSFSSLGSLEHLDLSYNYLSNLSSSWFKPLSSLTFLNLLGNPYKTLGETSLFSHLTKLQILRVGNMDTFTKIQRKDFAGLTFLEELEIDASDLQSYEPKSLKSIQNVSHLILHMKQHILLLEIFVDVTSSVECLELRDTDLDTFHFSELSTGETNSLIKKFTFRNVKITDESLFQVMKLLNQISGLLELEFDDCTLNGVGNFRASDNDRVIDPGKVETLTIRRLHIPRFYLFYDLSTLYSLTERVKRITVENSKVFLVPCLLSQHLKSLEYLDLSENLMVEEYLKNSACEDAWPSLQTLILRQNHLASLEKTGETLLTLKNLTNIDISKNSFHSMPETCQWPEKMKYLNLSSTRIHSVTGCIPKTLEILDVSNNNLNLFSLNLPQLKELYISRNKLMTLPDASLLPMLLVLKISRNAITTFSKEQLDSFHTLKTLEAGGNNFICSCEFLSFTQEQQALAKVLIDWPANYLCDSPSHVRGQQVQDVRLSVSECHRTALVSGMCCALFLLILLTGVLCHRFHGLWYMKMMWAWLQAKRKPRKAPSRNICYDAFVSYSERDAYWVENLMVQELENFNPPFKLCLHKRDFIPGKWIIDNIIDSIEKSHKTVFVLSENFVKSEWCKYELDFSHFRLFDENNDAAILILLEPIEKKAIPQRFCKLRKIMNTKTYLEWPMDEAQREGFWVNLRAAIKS

For data set [2], the target named is T1, TLR2. Briefly: In vitro TLR2 functional bioassay (NF-κB luciferase reporter). To be noted: HEK-293/hTLR2 cells; for agonist activity compared to TLR2 agonist controls (Pam2CSK4, Pam3CSK4, HKLM): all at 1 μg/mL. The data set is classed as cell-based. As for the experimental part:
The in vitro TLR2 functional bioassay was developed and optimized for use in high-throughput screening of soluble compound libraries to identify both TLR2 agonists and antagonists. The bioassay measures the induction of NF-κB signaling via TLR2 in HEK-293/hTLR2 cells (Invivogen) and parental HEK-293 cells as a negative control. Cells were seeded at a density of 40,000 per well using a WellMate microplate dispenser (Thermo Fisher Scientific/Matrix) in black 96-well plates with opaque white wells (PerkinElmer, Waltham, Mass.) and then incubated at 37° C. On day 2, the cells were transiently transfected with pNifty-Luc(InvivoGen, San Diego, Calif.), an NF-κB inducible reporter plasmid expressing the luciferase reporter gene (Schindler et al., Three NF-kappa B binding sites in the human E-selectin gene required for maximal tumor necrosis factor alpha-induced expression. Mol Cell Biol 1994, 14(9):5820-31) using an optimized 4:1 ratio by volume of FugeneHD transfection reagent (Promega, Madison, Wis.) to pNifty-Luc plasmid DNA (1 μg/mL). On day 3, the cells were stimulated with either test peptides or controls adjusted to a final concentration of 1 μg/mL using a NanoDrop spectrophotometer, ND1000 (Thermo Fisher Scientific). Synthetic di- and triacylated LP ligands, Pam2CSK4 and Pam3CSK4 (InvivoGen), were used as positive controls. TNF-α (InvivoGen) was also used as a transfection control that induces NF-κB independently of TLR2. On day 4 after 24 h of peptide stimulation, luciferase induced activity by the induction of NF-κB was measured. The medium was aspirated from the wells using an ELx405 SelectCW plate washer (BioTek, Winooski, Vt.), and 150 μg/mL D-luciferin (Gold Biotechnology, St. Louis, Mo.) was dispensed using the microplate dispensor. The plates were incubated at 37° C. for 5 min. The luminescence intensity was measured using the standard luminescence protocol on a Victor X4 multilabel plate reader equipped with a plate stacker for readout of multiple plates at a time (PerkinElmer, Waltham, Mass.). For each in vitro TLR2 bioassay, at least three different experiments were performed in triplicate (n≥3). Data were analyzed with GraphPad Prism software, and curves were generated with the appropriate nonlinear fit regression analysis.
A general note: A reporter such as luciferase makes a cellular process visible.
Target sequence in this assay (O60603 21-784): as above

The subject of data set [3] is TLR2 expressing human pancreatic tumor xenografts (SU.86.86 cells). Briefly: In vivo TLR2 selectivity (blocking) fluorescence imaging. Further details: species or system nude mice. As for the experimental part: Female athymic nude mice 6-8 weeks old (Harlan) bearing human pancreatic tumor xenografts of SU.86.86 cells on the right flank were used. Mouse weights and tumor volumes were determined using caliper measurements and the formula: volume (mm3)=(length×width^2)/2. Images were acquired when the tumors reached an average size of 500 mm^3. For the blocked group, a co-injection of 100 nmol/kg of the fluorescently labeled Compound 16 plus 2 μmol/kg Pam2CSK4 (a 20-fold excess) was administered via tail vein injection; for the unblocked group, 100 nmol/kg Compound 16 was administered. Fluorescence images were acquired at time 0 and 24 h using the Caliper Xenogen IVIS200 system (PerkinElmer) with the 710-760 nm excitation and 810-875 nm emission filter set. The fluorescence was quantified using Living Image software, in which the quantified signals were corrected for both instrument and mouse background subtractions. The quantified fluorescence was then plotted using GraphPad Prism software and underwent statistical analysis using Student's t-test.

The target of data set [4] is T1, TLR2. To be noted: Huynh et al.; read-out: binding affinity (Ki); cited from earlier work.
Target sequence in this assay (O60603 21-784, species assumed): as the sequence (O60603 21-784) above
In data set [5] the test system is SU.86.86 cells. Briefly: Cytotoxicity assay (Dojindo CCK8 Kit). Particulars: 24 hours, 21 to 2690 nM. The data set is classed as cell-based, human. Here is the method: SU.86.86 were treated with Compound 16 for 24 hours over a range of concentrations (40 to 512 ng/mL corresponding to 21 to 2690 nM). Pam2CSK4 was added to SU.86.86 for 24 hours over the same range of concentrations (40 to 512 ng/mL). Three different experiments were performed in triplicate (n≥3). Data were analyzed with GraphPad Prism software.

Entries after “also recorded” stand apart in the source; their conditions may differ. Read-outs that look alike come from different tables or passages of the source.

Broadly, the Ki is a dissociation constant, usually derived from enzyme kinetics or from competition with a known ligand. The EC50 is the concentration needed to bring the measured effect to its halfway point. For the molecule `CCCCCCCCCCCCCCCC(=O)OCCSC[C@H](NC(=O)COCC(=O)NCCCOCCOCCOCCCNC(C)=O)C(=O)NCC(=O)N[C@H](CO)C(=O)NCCCOCCOCCOCCCNC(=O)COCC(N)=O` [Compound 14, Ac-Pego-Cys(S-[palmitoyloxyethyl])-Gly-DSer-PEGO-NH2], in data set [1], the Ki came out at 22 nM. For the same molecule, in data set [2] (0.001 ng/mL to 10 μg/mL, read-out: EC50, TLR2 agonistic activity), the EC50 turned out to be 674 nM. In addition, in data set [2], the “agonist activity compared to TLR2 agonist controls (Pam2CSK4, Pam3CSK4, HKLM)” value is given as “significantly less agonist potency”.

In general, IC50 refers to the midpoint of a concentration-inhibition curve. Regarding `CCCCCCCCCCCCCCCC(=O)OCCSC[C@H](NC(=O)COCC(=O)NCCCOCCOCCOCCCNC(=O)c1ccc(C2=C(/C=C/C3=[N+](CCC)c4ccccc4C3(C)C)CCC/C2=C\C=C2\N(CCC)c3ccccc3C2(C)C)cc1)C(=O)NCC(=O)N[C@H](CO)C(=O)NCCCOCCOCCOCCCNC(=O)COCC(N)=O` [Compound 16, IR780-Pego-Cys(S-[palmitoyloxyethyl])-Gly-DSer-PEGO-NH2], the Ki in data set [1] turned out to be 16 nM. The “mean tumor fluorescence, unblocked tumor/blocked tumor” value in data set [3] (100 nmol/kg i.v., blocked with 2 μmol/kg Pam2CSK4 (20-fold excess), 24 h) worked out at 2.67 fold. In addition, the “tumor fluorescence in blocked versus unblocked group” value in data set [3] (100 nmol/kg i.v., blocked with 2 μmol/kg Pam2CSK4, 24 h post-injection) is listed as “significant reduction in the ex vivo fluorescence signal; also recorded: significant reduction in the tumor fluorescence”. Further, the “tumor fluorescence signal by in vivo imaging” value in data set [3] (24 h post-injection) is reported as “retention of fluorescence signal in the tumor”. The IC50 in data set [2] (0.001 ng/mL to 10 μg/mL, read-out: IC50, inhibition of TLR2 agonistic activity of Pam2CSK4) came to 361 nM. Further, the “agonist activity compared to TLR2 agonist controls (Pam2CSK4, Pam3CSK4, HKLM)” value was “significant decrease in agonist response” in data set [2] and “complete loss in agonist activity” in data set [2] (listed as compound 16).

Take `CCCCCCCCCCCCCCCC(=O)OC[C@H](CSC[C@H](NC(=O)COCC(=O)NCCCOCCOCCOCCCNC(C)=O)C(=O)NCC(=O)N[C@H](CO)C(=O)NCCCOCCOCCOCCCNC(=O)COCC(N)=O)OC(=O)CCCCCCCCCCCCCCC` [compound 10, reference compound]: the Ki in data set [1] is 91 nM; in data set [4] it was 24 nM.

In the case of Pam2CSK4 [reference compound], the cell viability result in data set [5] is “cell viability decreases at higher concentrations past 336 nM”.

(Values after patent US10118942B2, “Toll-like receptor 2 ligands and methods of making and using thereof” (H. LEE MOFFITT CANCER CENTER AND RESEARCH INSTITUTE, INC., priority 2015, dated 2018).)
